PubChem BioAssay (NCI)
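Test compounds were applied to cells in 96-well plates for 48 hours at 5 doses. TGI denotes the concentration required for complete inhibition of growth.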 Where a SMILES comes first, the peptide text is derived from it.

Columns and labels:
Experiment in all cases: growth of human tumour cells (NCI), 48 h
[1] = test system: NCI/ADR-RES ovarian
[2] = test system: PC-3 prostate
[3] = test system: NCI-H23 lung
[4] = test system: CCRF-CEM leukemia
[5] = test system: T-47D breast
[6] = test system: LOX IMVI melanoma
[7] = test system: HL-60(TB) leukemia
[8] = test system: MOLT-4 leukemia
[9] = test system: OVCAR-4 ovarian
[10] = test system: UACC-62 melanoma
[11] = test system: RPMI-8226 leukemia
[12] = test system: HCT-15 colon
[13] = test system: SK-MEL-5 melanoma
[14] = test system: SK-MEL-28 melanoma
[15] = test system: MDA-MB-435
[16] = test system: UO-31 renal
[17] = test system: SR leukemia
[18] = test system: MALME-3M melanoma
[19] = test system: NCI-H460 lung
[20] = test system: RXF 393 renal

| SMILES | TGI [1] [µM] | TGI [2] [µM] | TGI [3] [µM] | TGI [4] [µM] | TGI [5] [µM] | TGI [6] [µM] | TGI [7] [µM] | TGI [8] [µM] | TGI [9] [µM] | TGI [10] [µM] | TGI [11] [µM] | TGI [12] [µM] | TGI [13] [µM] | TGI [14] [µM] | TGI [15] [µM] | TGI [16] [µM] | TGI [17] [µM] | TGI [18] [µM] | TGI [19] [µM] | TGI [20] [µM] |
| --- | --- | --- | --- | --- | --- | --- | --- | --- | --- | --- | --- | --- | --- | --- | --- | --- | --- | --- | --- | --- |
| CC(CO)(CBr)COC(=O)c1cc(Br)c(N)c(Br)c1 (stereo not given) | > 100 | > 100 | > 100 | > 100 | > 100 | > 100 | > 100 | > 100 | > 100 | > 100 | > 100 | > 100 | > 100 | > 100 | > 100 | 11.3 | > 100 |  |  |  |
| Cc1coc2c1C(=O)C(=O)c1c-2ccc2c1CCCC2(C)C | > 100 | > 44.7 | 2.8 | > 100 | > 100 | 1.9 |  | > 100 | > 100 | 3.32 | > 33.9 | 6.4 | 1.19 | 7.52 | 2.88 | 14.2 | 7.03 | 2.3 | 10.4 | > 100 |
| COCCN(CCOC)C(=O)COc1c2cc(C(C)(C)C)cc1Cc1cc(C(C)(C)C)cc(c1OCC(=O)N(CCOC)CCOC)Cc1cc(C(C)(C)C)cc(c1OCC(=O)N(CCOC)CCOC)Cc1cc(C(C)(C)C)cc(c1OCC(=O)N(CCOC)CCOC)Cc1cc(C(C)(C)C)cc(c1OCC(=O)N(CCOC)CCOC)C2 | 33 | 3.48 | 4.19 |  | 19.5 | 8.92 |  |  | 17.5 | 3.53 |  | 11.8 | 2.78 | 18.6 | 10.7 |  | 3.63 | 16.9 | 5.86 | 4.03 |
| CC[C@@H]1CC[C@@H]2[C@H](CC[C@]3(C)[C@@H](O)CC[C@@H]23)[C@H]1CO | > 100 | > 100 | > 100 | > 100 | > 100 | > 100 | 85.8 | > 100 | > 100 | > 100 | > 100 | > 100 | > 100 | > 100 | > 100 | > 100 |  | > 100 | > 100 | > 100 |
| COc1ccc2nc3cc([N+](=O)[O-])ccc3c(Nc3ccc(S(=O)(=O)N=C(N)N)cc3)c2c1 |  | > 100 | > 100 | 36.5 | 88.7 | > 100 | 31.3 | 14.7 | > 100 | 46.9 | 42.6 | > 100 | 36.4 | > 100 | > 100 | > 100 | 4.68 | 28.5 | 25 | > 100 |
| CCOC(=O)c1nnsc1NN=C(C)C | > 100 | > 100 | > 100 |  | > 100 | > 100 | > 100 | > 100 | > 100 | > 100 | > 100 | > 100 | > 100 | > 100 | > 100 | > 100 |  | > 100 | > 100 | > 100 |
| COC(=O)C(Cc1c(C2Nc3ccccc3C2CC(NC(C)=O)C(=O)OC)[nH]c2ccccc12)NC(C)=O (stereo not given) | > 100 | > 100 | > 100 | > 100 | > 100 | > 100 | > 100 | > 100 |  | > 100 | > 100 | > 100 | > 100 | > 100 | > 100 | > 100 |  | > 100 | > 100 | > 100 |
| C/C(=N/c1[nH]c(=O)cc2c1C(=O)CC2)N(C)C | > 200 | > 200 | > 200 | > 200 | > 200 | > 200 | > 200 | > 200 | > 200 | > 200 | > 200 | > 200 | > 200 | > 200 | > 200 | > 200 |  | > 200 | > 200 | > 200 |
| CO/N=C(\C(=O)Nc1cncs1)c1csc(N)n1 | > 10 | > 10 | > 10 | > 10 | > 10 | > 10 |  | > 10 | > 10 | > 10 | > 10 | > 10 | > 10 | > 10 | > 10 | > 10 | > 10 | > 10 | > 10 |  |
| N#Cc1cc(N(CCCl)CCCl)c([N+](=O)[O-])cc1[N+](=O)[O-] | > 100 | > 100 | > 100 | 98.2 | 57.2 | > 100 | 80.9 | > 100 | > 100 | > 100 | > 100 | > 100 | > 100 | > 100 | > 100 | > 100 | 35.8 | > 100 | > 100 |  |
| COC(=O)CCc1ccc2c(c1)CC1(Cc3ccccc3C1)C2 | > 100 | > 100 | > 100 | > 100 | > 100 | > 100 | > 100 | > 100 | > 100 | > 100 | > 100 | > 100 | > 100 |  | > 100 | > 100 |  | > 100 |  | > 100 |
| O=[N+]([O-])c1ccc(N/N=C(\c2ccccc2)c2ccccn2)nc1 | 2.02 | > 44.7 | 14.9 | > 91.5 | 26.9 |  | 31.7 | > 67.2 | > 100 | > 54.3 | > 100 | > 28.5 | 26.5 | > 100 | > 95.3 | 4.69 | > 83.7 | 14.4 | 22.8 | 31.8 |
| COc1cc([C@@H]2c3cc4c(cc3[C@@H](OC3OC5COC(C)OC5C(OC(=O)CN5CCN(C)CC5)C3OC(=O)CN3CCN(C)CC3)C3COC(=O)[C@@H]32)OCO4)cc(OC)c1OC(=O)CN1CCN(C)CC1 (stereo not given in full) | > 100 | > 100 | > 100 | 46.6 | > 100 | > 100 | 42.6 | 42.1 | > 100 | > 100 |  | > 100 | > 100 |  | > 100 | > 100 |  | > 100 | > 100 | > 100 |
| CCOC(=O)c1c[nH]cc1-c1cn(S(=O)(=O)c2ccccc2)cc1C | > 100 | 56.3 | 69.8 | > 100 | > 100 | 71.9 | > 100 | > 100 | > 100 | 33.6 |  | 76.4 | > 10 | 38.4 | > 10 | > 100 |  | 40.4 | 47.3 | > 100 |
| CCC(CCN)(CCN)[N+](=O)[O-] | > 100 | > 100 |  |  | > 100 |  | > 100 | > 100 |  | > 100 | > 100 | > 100 | > 100 |  | > 100 |  | > 100 | > 100 | > 100 | > 100 |
| COc1ccc2c(c1)CCN1CCCc3ccc(OC)cc3C21 (stereo not given) | > 100 | > 100 | > 100 | > 100 | > 100 | > 100 |  | > 100 | > 100 | > 100 | > 100 | > 100 | > 100 | > 100 | > 100 | > 100 | > 100 |  |  | > 100 |
| COC(=O)/C(=N\NC(=S)NN)C(C(=O)OC)C(=O)C(=O)Nc1cccc(C(F)(F)F)c1 (stereo not given) | > 100 | > 100 | > 100 | > 100 | > 100 | > 100 | > 100 |  | > 100 | > 100 | > 100 | > 100 | > 100 | > 100 | > 100 | > 100 |  | > 100 | > 100 | > 100 |
| OCCCc1cc(O)c2c(c1)C(CO)C(c1ccc(O)c(O)c1)O2 (stereo not given) | > 100 | > 100 | > 100 | > 100 | > 100 | > 100 | > 100 | > 100 |  | > 100 |  | > 100 | > 100 | > 100 | > 100 | > 100 | > 100 | > 100 | > 100 |  |
| CCOC1(OCC)N=C(N)C2(C#N)C3(C(=O)N(C(C)C)N=C3C)C12C#N (stereo not given) | > 100 | > 100 | > 100 | > 100 | > 100 |  | > 100 | > 100 | > 100 | > 100 | > 100 | > 100 |  | > 100 | > 100 | > 100 | > 100 | > 100 | > 100 | > 100 |
| CC(C)(C)C1(O)C=C(O)C(=O)N1NC(=O)c1ccccc1Nc1ccccc1 (stereo not given) | > 100 | > 100 | > 100 | 57.6 | > 100 | > 100 | 7.25 | 29 | > 100 | 63 | > 100 | > 100 | > 100 | > 100 | > 100 | > 100 |  | > 100 | > 100 | > 100 |
| C/C(=N\Nc1nc2ccccc2s1)c1cnccn1 | 4.88 | > 67.4 | 12.3 | > 100 | > 100 |  |  |  | > 100 | > 60.6 | > 47.8 | 18.2 | 16 | > 100 | > 100 | 23.6 | > 100 | 43.7 | 15 | 40.7 |
| O=[N+]([O-])C(=C(N1CCCCC1)N1CCCCC1)/C(Cl)=C(\Cl)[N+](=O)[O-] | 50.7 | 30 | 14 | > 31.3 | 3.88 | 5.13 |  |  | 22.8 | 29.2 | 13.7 | 5.48 | 11 | 37.3 | 19.3 | 8.11 | > 100 | 6.28 | 59.9 | 2.94 |
| CNC(=O)CNC(=O)C(NC(=O)CNC(=O)C1CCCN1C(=O)C(C)NC(=O)C(NC(C)=O)C(C)C)C(C)C (stereo not given) (Ac-VAPGVG-NHMe; configuration not given here) | > 100 | > 100 | > 100 | > 100 | > 100 | > 100 | > 100 | > 100 | > 100 | > 100 | > 100 | > 100 |  | > 100 | > 100 | > 100 | > 100 | > 100 | > 100 |  |
| CS/C(=N\S(=O)(=O)c1cc(C)c(Cl)cc1Cl)NNc1cnc2ccccc2n1 | > 100 | > 100 | > 100 | > 100 | > 100 | > 100 | > 100 | > 100 | > 100 | > 100 |  | > 100 | > 100 | > 100 | > 100 | > 100 |  | > 100 | > 100 | > 100 |
| CCC12CC(c3ccccc3)C(C(=O)N1)C(=O)N2 (stereo not given) | > 100 | > 100 | > 100 | > 100 | > 100 |  | > 100 | > 100 | > 100 | > 100 | > 100 | > 100 | > 100 | > 100 | > 100 | > 100 | > 100 | > 100 | > 100 | > 100 |
